Measured values taken from patent publication US8114393B2, “Methods and compositions for phosphate binding” (Wisconsin Alumni Research Foundation, priority 2005, dated 2012).

Assays:
[1] = tested on: Intestinal Phosphate Absorption; assay: Intestinal phosphate absorption: oral 33P dose after gavage of phosphate binder; assay type: in vivo, rats; conditions: for amount of 33P remaining in the digestive tract compared with water (FIG. 3A) / serum 33P levels compared with water (FIG. 3B): 10 mg calcium, 14.4 mg Renagel or novel binder (Table 1); for 33P remaining in the intestine compared to Renagel, dose response study (FIG. 4A) / serum 33P levels compared to Renagel, dose response study (FIG. 4B): two highest levels of DAB-8 and DAB-16, highest level of DAB-64, vs 14.4 mg Renagel; for binding / absorption of an oral 33P dose (summary): administered orally in rats
Protocol: (§1) Animals. Male Sprague-Dawley rats (Harlan Sprague-Dawley, Madison, Wis.) weighing approximately 120 grams were used in all experiments.
In experiments to measure ^33P absorption, the rats were fed a laboratory chow diet (Lab Diet 5012, Richmond, Ind.) containing 1% calcium and 0.7% phosphorus ad libitum for less than one week prior to the experiment.
Intestinal Phosphate Absorption. Following an overnight fast, rats were administered 0.5 mL water or an oral phosphate binder dissolved in water via gastric gavage. A second dose of 0.5 mL containing 3 μCi ^33P (as H3PO4, specific activity 155.8 Ci/mg, New England Nuclear/Perkin Elmer, Boston, Mass.) in a 10, 50, or 100 mM KH2PO4 buffer at pH 7.4 was immediately administered via gastric gavage. Rats were killed by CO2 asphyxiation immediately or 60 minutes after the oral dose. The rats killed immediately (labeled “0 min control” in figures) were used to determine if the oral ^33P dose was properly administered and completely recovered.
Blood was collected via heart puncture and centrifuged at 1500×g for 15 minutes at 22° C. to yield serum. A suture was tied to the cranial end of the esophagus to contain liquid inside the stomach. The entire digestive tract was then removed and allowed to dissolve for several days in concentrated HNO3 (approximately 1 mL HNO3 per gram tissue). The exact volume of the dissolved digestive tract was determined by diluting the dissolved tissues to equal volumes with water.
The amount of radioactivity in total body serum and total volume of dissolved tissue was determined following liquid scintillation counting of 50 μL aliquots in triplicate (Tri-Carb Liquid Scintillation Analyzer, Perkin-Elmer/Packard, Boston, Mass.). Total body serum was estimated to be 40 mL serum/kg body weight. (Hawk T et al., 1999, Formulary for laboratory animals, Ames, Iowa: Iowa State University Press.)
(§2) Statistical analysis. Data are presented as means±standard error of the means (SEM). Treatment groups were compared by a fully factorial analysis of variance (ANOVA) and means were subjected to Tukey, Scheffe, and Fisher's Least-Significant-Difference (LSD) tests (Systat 5.2.1, Systat Software, Inc., Point Richmond, Calif.). Differences were considered significant if at least two of the tests detected significance with a p-value <0.05, unless specified otherwise.
Materials and Methods. The relevant materials and methods were the same as set forth above except that instead of using “0.5 mL of water or 39.5 mg calcium acetate, 14.4 mg RENAGEL, or up to 132.8 mg of test dendrimer,” the following was used “0.5 mL of water, 14.4 mg RENAGEL or 10 mg DAB-8 as the hydroacetate or hydrocitrate form dissolved in water.”

rats = assay: Oral tolerability of DAB dendrimers fed in the diet; assay type: in vivo; conditions: as hydrochlorides; for tolerability in rats: 0.15% of the diet; for tolerability in rats, observation: 0.3% or 0.6% of the diet, after 5 days (data not shown)
Text: Unfortunately, little is known regarding the toxicity of DAB dendrimers when administered orally. Previous research has shown DAB dendrimers to be cytotoxic in vitro (Duncan R et al., Dendrimer biocompatibility and toxicity, Adv Drug Deliv Rev 2005, 57:2215-2237) and when administered intravenously, the DAB dendrimers are lethal. (Schatzlein A G et al., Preferential liver gene expression with polypropylenimine dendrimers, J Control Release 2005, 101:247-258). In our experiments, however, the DAB dendrimers were well tolerated by rats when administered orally.

[2] = tested on: Intestinal Phosphate Absorption; assay: Fecal calcium and phosphorus measurements, binder in purified diet; assay type: in vivo, rats; conditions: for mg P per gram feces: 48 h fecal collection, mean ± SEM, control 3.79 ± 0.18; for fecal phosphorus levels versus control diet or diet with 0.15% Renagel / increase in fecal phosphorus versus the increase from excess calcium or an equivalent amount of Renagel: 0.15% of diet; for fecal phosphorus levels versus control diet or diet with 0.15% Renagel: DAB-8 and DAB-16 significant by Fisher's LSD test only; for increase in fecal phosphorus versus the increase from excess calcium or an equivalent amount of Renagel: Fisher's LSD test only
Text: as §1
In experiments to measure fecal calcium and phosphorus levels, rats were fed purified diet described previously for 9 days. (Suda T et al., Biological activity of 25-hydroxyergocalciferol in rats, J Nutr 1970, 100:1049-1052). This diet was mixed with egg white protein (Harlan Teklad, Madison, Wis.) and contained 0.20% inorganic phosphorus and 0.47% calcium. The purified diet was supplemented with 100 μL soybean oil (Wesson oil, ConAgra Foods, Irvine, Calif.) containing 500 μg α-tocopherol, 60 μg menadione, 40 μg β-carotene, and 1.875 μg cholecalciferol three times each week.
Fecal calcium and phosphorus measurements. Rats were fed the purified diet described above or the same diet with 1.2% calcium, 0.15% Renagel®, or 0.15% DAB-4, DAB-8, or DAB-16 for 7 days. Rats were then moved to metabolic cages and fecal matter was collected for 48 hours. Fecal samples were frozen, lyophilized, and heated to over 600° C. overnight in a muffle oven. Remaining ash was then dissolved overnight in 25 mL 6 N HCl. The calcium concentration of the acid was determined by flame atomic absorption spectroscopy (Model 3110, Perkin Elmer, Norwalk, Conn.) using an aliquot of the dissolved ash diluted 1:40 with 1 g/L LaCl3. The phosphorus concentration of an aliquot of the dissolved ash was determined by a colorimetric assay described previously. (Itaya K et al., A new micromethod for the colorimetric determination of inorganic phosphate, Clin Chim Acta 1966, 14:361-366).
as §2

[3] = 10 mM KH2PO4, 60 min, listed as DAB-16-Cl
[4] = 14.4 mg Renagel or 10 mg DAB-8 as acetate or citrate, 10 mM KH2PO4, 60 min

Compound	amount of 33P remaining in the digestive tract compared with water (FIG. 3A) ([1]; 10 mM KH2PO4, 60 min)	serum 33P levels compared with water (FIG. 3B) ([1]; 10 mM KH2PO4, 60 min)	33P remaining in the intestine compared to Renagel, dose response study (FIG. 4A) [1]	serum 33P levels compared to Renagel, dose response study (FIG. 4B) [1]	tolerability in rats (rats)	tolerability in rats, observation (rats)	mg P per gram feces ([2]; 0.15% of diet for 7 days) [mg P per gram feces]	fecal phosphorus levels versus control diet or diet with 0.15% Renagel [2]	also measured
Polypropylenimine tetrahexacontaamine Dendrimer perhydrochloride [DAB-64]	significantly increased	significantly reduced	significantly increased	significantly reduced	–	–	–	–	–
Polypropylenimine hexadecaamine Dendrimer perhydrochloride [DAB-16]	significantly increased	significantly reduced	significantly increased	significantly reduced	tolerated	only softened stool was observed	4.78 ± 0.30	significantly increased	33P retained in the digestive tract versus DAB-4 at an equivalent amount of free amino groups (FIG. 5A) ([1]; 10 mM KH2PO4, 60 min): bound significantly more; 33P retained in the digestive tract versus DAB-8 at equimolar amounts (FIG. 5A) ([1]; 10 mM KH2PO4, 60 min): retained significantly more; amount of 33P remaining in the digestive tract compared to a comparable amount of Renagel (FIG. 3A) ([1]; 10 mM KH2PO4, 60 min): bound significantly more; serum 33P levels compared to a comparable amount of Renagel (FIG. 3B) ([1]; 10 mM KH2PO4, 60 min): significantly reduced; 33P retained in the digestive tract versus DAB-8 at equimolar amounts (FIG. 5A) [1, 3]: significantly more; amount of 33P remaining in the digestive tract compared to a comparable amount of Renagel (FIG. 3A) [1, 3]: significantly increased; serum 33P levels compared with water, mechanism study (FIG. 5B) ([1]; 13.9 mg, the only level of binder with significant effect): significantly reduce; increase in fecal phosphorus versus the increase from excess calcium or an equivalent amount of Renagel [2]: significantly higher
Cl.Cl.Cl.Cl.Cl.Cl.NCCCN(CCCN)CCCCN(CCCN)CCCN [DAB-4, polypropylenimine tetraamine Dendrimer perhydrochloride]	significantly increased	significantly reduced	–	–	tolerated	only softened stool was observed	4.30 ± 0.13	increased, though not significantly	–
polypropylenimine octaamine Dendrimer perhydrochloride [DAB-8]	significantly increased	significantly reduced	significantly increased	significantly reduced	tolerated	only softened stool was observed	4.71 ± 0.53	significantly increased	amount of 33P remaining in the digestive tract compared to a comparable amount of Renagel (FIG. 3A) ([1]; 10 mM KH2PO4, 60 min): bound significantly more; serum 33P levels compared to a comparable amount of Renagel (FIG. 3B) ([1]; 10 mM KH2PO4, 60 min): significantly reduced; amount of 33P remaining in the digestive tract compared to a comparable amount of Renagel (FIG. 3A) ([1]; 10 mM KH2PO4, 60 min, listed as DAB-8-Cl): significantly increased; increase in fecal phosphorus versus the increase from excess calcium or an equivalent amount of Renagel [2]: significantly higher
CC(=O)[O-].CC(=O)[O-].[Ca+2] [calcium, Calcium acetate, reference compound]	significantly increased	significantly reduced	–	–	–	–	–	–	33P remaining in the intestine after 60 minutes compared with water (FIG. 2A) ([1]; 20 mg calcium (as calcium acetate) or 14.4 mg Renagel by gavage, 33P in 10, 50 or 100 mM KH2PO4, fasted rats): significantly more; 33P bound in the intestine compared with 14.4 mg Renagel (FIG. 2A) ([1]; 20 mg calcium, difference significant in 10 or 100 mM phosphate, 60 min): bound more ^33P in the intestine; serum 33P levels compared with water (FIG. 2B) ([1]; calcium (printed 10 mg) or 14.4 mg Renagel, 10, 50 or 100 mM KH2PO4, 60 min): significant decrease; mg P per gram feces ([2]; 1.20% Ca diet for 7 days): 4.39 ± 0.23 mg P per gram feces; fecal phosphorus versus control diet ([2]; 1.20% calcium diet): increased, though not significantly
Cl.Cl.N[C@@H]1CO[C@@H]2[C@H]1OC[C@H]2N [FC, 1,4:3,6-Dianhydro-2,5-diamino-2,5-dideoxy-D-iditol dihydrochloride]	did not affect	slight, but significant, decrease	–	–	–	–	–	–	binding / absorption of an oral 33P dose (summary) [1]: does not appear to bind
Cl.Cl.Cl.Cl.NC[C@@H](N)[C@@H](N)CN [KB-54, erythro-1,2,3,4-tetraminobutane tetrahydrochloride]	significantly increased	significantly reduced	–	–	–	–	–	–	binding / absorption of an oral 33P dose (summary) [1]: reduced the absorption
DAB-Am-8, Polypropylenimine octaamine Dendrimer citrate (Generation 2.0) [DAB-8 as citrate]	–	–	–	–	–	–	–	–	33P in the serum compared with vehicle pretreatment (FIG. 26) [1, 4]: significantly less; 33P retained in the gut compared with vehicle pretreatment (FIG. 25) [1, 4]: significantly more
